# Source: patent US9808500B2, “Antithrombotic nanoparticle” (Washington University, priority 2009, dated 2017)
# “Also recorded” adds a separate entry of the source.
# What was measured:
# thrombin [1] = target: T1, thrombin (Homo sapiens, UniProt P00734); settings: thrombin inhibitor, quoted; cited from earlier work
# thrombin [2] = target: T1, thrombin; test: Thrombin inhibition and inhibition kinetics with chromogenic substrate Chromozym TH; assay type: biochemical
# Protocol: Tosyl-Gly-Pro-Arg-4 nitranilide acetate (Chromozym TH, Roche Applied Science) was employed to assay PPACK inhibition of thrombin and plasmin in accordance with previously described methods [31]. 100 μL of 12 nM thrombin was incubated for one minute at room temperature with selected amounts of PPACK or PPACK-nanoparticles or with an excess of bare nanoparticles. 500 μL (100 μM) of the thrombin substrate Tosyl-Gly-Pro-Arg-4 nitranilide acetate were added to terminate the PPACK-thrombin interaction. In accordance with previous work, thrombin activity against the substrate was measured via absorbance at 405 nm. The rate of change in absorbance at 405 nm was taken as representative of the amount of uninhibited thrombin available to cleave Chromozym TH.
# In additional experiments, Chromozym TH was used to determine the kinetics of the PPACK-thrombin interaction. […] Thrombin activity was measured as above. Kinetics of inhibition were characterized in accordance with the work of Kettner and Shaw [26]. The assay yielded the apparent pseudo-first-order rate constant for thrombin inactivation (kapp). Modeling inhibition according to equation (1), an estimate of the second order constants (k2/Ki) for the PPACK-thrombin interaction and the PPACK nanoparticle-thrombin interaction were obtained via equation (2). To best obtain a pseudo-first-order reaction, thrombin dilution was maximized within the limits set by the sensitivity of the Chromozym TH assay.
# thrombin [3] = target: T1, thrombin; settings: literature value; cited from earlier work
# [4] = in vivo; cited from earlier work
# C57BL/6 mice [5] = test: Photochemical (rose bengal) injury, thrombotic occlusion of the carotid artery; assay type: in vivo, mouse; settings: for time to occlusion of the carotid artery: i.v. bolus 10 min before rose bengal, heparin 0.125 mg/kg, PPACK 12.5 mg/kg, nanoparticles 1 mL/kg; for effect on occlusion time / thrombus formation (in words): photochemical injury, C57BL/6 mice
# Text: As described in previous work, 10-12 week old male C57BL/6 mice (weight 25-30 g) were subjected to photochemical injury of the carotid. After anesthetization with sodium pentobarbital, the mice were secured under a dissecting microscope for isolation of the right common carotid artery via midline cervical incision. An ultrasonic flow probe (model 0.5 VB Transonic Systems, Ithaca, N.Y.) was applied to the artery to measure flow for the duration of each experiment. A 1.5 mW 540 nm HeNe laser (Melles Griot, Carlsbad, Calif.) was focused on the artery at a distance of 6 cm. […] In additional control experiments (n=4), no treatment preceded injection of the rose bengal dye. Occlusion of the carotid artery was noted and experiments were terminated upon the stable (>5 minutes) maintenance of zero flow.
# mice = settings: cited from earlier work
# [6] = Stability of the nanoparticle formulation (HPLC of unattached PPACK after storage); assay type: physicochemical; settings: PPACK particles: after dialysis and one week storage at four degrees
# Protocol: To functionalize particles containing 1,2-distearoyl-sn-glycero-3-phosphoethanolamine-N-[carboxy(polyethylene glycol)-2000] with PPACK, amine-carboxyl coupling was employed to conjugate the PPACK N-terminus to the bare carboxyl groups on the synthesized particles. After one hour mixing of 1 mL emulsion with 12.5 mg PPACK, EDCI 1-[3-(Dimethylamino)propyl]-3-ethylcarbodiimide methiodide (2 mg) was added for overnight coupling. Excess PPACK and EDCI were removed by dialysis (MWCO 3000-5000). Particle size was assessed before and after PPACK conjugation as described above. Extent of PPACK coupling was determined by reverse-phase HPLC quantification of uncoupled PPACK after centrifugation of nanoparticles with Cleanascite lipid adsorption reagent (Agilent Technologies). […] PPACK was detected via phenylalanine absorbance (258 nm). Zeta potential measurements, taking into consideration hydrodynamic diameter measurements, were used for further verification of PPACK coupling (Brookhaven Instruments).
# C57BL/6 mice [7] = settings: heparin 0.125 mg/kg, rose bengal model; cited from earlier work
molecule,measurement,setting,value
CN[C@H](Cc1ccccc1)C(=O)N1CCC[C@H]1C(=O)N[C@H](C=O)CCCN=C(N)N [Efegatran],Ki,thrombin [1],1.2 nM
"NC(N)=NCCC[C@H](NC(=O)[C@@H]1CCCN1C(=O)[C@H](N)Cc1ccccc1)C(=O)CCl [PPACK, D-phenylalyl-L-prolyl-L-arginyl-chloromethyl ketone]",effect on thrombin activity against Chromozym TH (in words),thrombin [2],no significant thrombin activity apparent beyond a ten-fold excess
same,pseudo-first-order rate constant kapp,"thrombin [2]; 0.92 nM thrombin, 5 nM PPACK or 0.3 pM PPACK nanoparticles",1.824 min⁻¹
same,"second order constant (k2/Ki), per PPACK","thrombin [2]; free PPACK or PPACK on the particles, 5 nM PPACK",6.08e+06 M⁻¹ s⁻¹
same,decay constant of thrombin activity with inhibitor concentration,"thrombin [2]; one-minute incubation, per PPACK concentration",0.026 nM⁻¹
same,second order constant found by Kettner and Shaw,thrombin [3],2e+07 M⁻¹ s⁻¹
same,distribution half-life,[4],7 min
same,elimination (clearance) half-life,[4],2.9 min
same,time to occlusion of the carotid artery,C57BL/6 mice [5],71 ± 19 min
same,effect on occlusion time / thrombus formation (in words),C57BL/6 mice [5],allowed a steady approach to complete occlusion; also recorded: did not delay occlusion time
same,LD50,mice,greater than 50 mg/kg
same,long-term toxicity,mice,no long-term toxicity
Bivalirudin nanoparticles: Bivalirudin conjugated at the N-terminus to Carboxy-PEG functionalized perfluorocarbon nanoparticles,stability of the nanoparticle formulation,[6],analogous coupling and stability characteristics
same,effect on occlusion time / thrombus formation (in words),C57BL/6 mice [5],Bivalirudin nanoparticles did
"Bivalirudin: short synthetic peptide, specific and reversible direct thrombin inhibitor",effect on thrombin activity against Chromozym TH (in words),thrombin [2],"less active, but more specific than PPACK"
same,effect on occlusion time / thrombus formation (in words),C57BL/6 mice [5],did not significantly extend occlusion time
Heparin,occlusion time in previous trials,C57BL/6 mice [7],97 ± 18 min
same,time to occlusion of the carotid artery,C57BL/6 mice [5],102 ± 13 min
same,effect on occlusion time / thrombus formation (in words),C57BL/6 mice [5],formation of a stable thrombus was noticeably delayed
